What was measured:
[1] = biological target: human recombinant FGFR1 (Homo sapiens, UniProt P11362); assay: FGFR family enzymatic activity assay (Caliper-based kinase assay), FGFR1; type: biochemical; conditions: FGFR1 0.5 nM, ATP 100 μM, peptide substrate 1 μM, room temperature 3 h
Text: (§1) A Caliper-based kinase assay (Caliper Life Sciences, Hopkinton, Mass.) was used to measure inhibition of FGFR family (FGFR1, FGFR2, FGFR3, FGFR4) kinase activity of a compound of Formula (I′) or (I). […] This value is presented as the IC50.

[2] = biological target: human recombinant FGFR2 (Homo sapiens, UniProt P21802); assay: FGFR family enzymatic activity assay (Caliper-based kinase assay), FGFR2; type: biochemical; conditions: FGFR2 0.1 nM, ATP 75 μM, peptide substrate 1 μM, room temperature 3 h
Text: as §1

[3] = biological target: human recombinant FGFR3 (Homo sapiens, UniProt P22607); assay: FGFR family enzymatic activity assay (Caliper-based kinase assay), FGFR3; type: biochemical; conditions: FGFR3 0.9 nM, ATP 120 μM, peptide substrate 1 μM, room temperature 3 h
Text: as §1

[4] = biological target: human recombinant FGFR4 (Homo sapiens, UniProt P22455); assay: FGFR family enzymatic activity assay (Caliper-based kinase assay), FGFR4; type: biochemical; conditions: FGFR4 2 nM, ATP 250 μM, peptide substrate 1 μM, room temperature 3 h
Text: as §1

[5] = tested on: SNU-16 cells; assay: Inhibition of FGFR2-dependent cell growth (Cell-titer Glo); type: cell-based; conditions: Homo sapiens, SNU16 cells, 72 hrs incubation, cell viability by Cell-titer Glo
Description: The cell-based effects of FGFR inhibitors were determined by measuring inhibition of FGFR-dependent cell line growth. […] Percent inhibition of cell growth was calculated as a percentage of untreated cell viability. The percent inhibition was plotted as a function of log compound concentration. The IC50 was then calculated for each compound using Prism software from GraphPad.

Sequence of human recombinant FGFR2 (P21802 22-821): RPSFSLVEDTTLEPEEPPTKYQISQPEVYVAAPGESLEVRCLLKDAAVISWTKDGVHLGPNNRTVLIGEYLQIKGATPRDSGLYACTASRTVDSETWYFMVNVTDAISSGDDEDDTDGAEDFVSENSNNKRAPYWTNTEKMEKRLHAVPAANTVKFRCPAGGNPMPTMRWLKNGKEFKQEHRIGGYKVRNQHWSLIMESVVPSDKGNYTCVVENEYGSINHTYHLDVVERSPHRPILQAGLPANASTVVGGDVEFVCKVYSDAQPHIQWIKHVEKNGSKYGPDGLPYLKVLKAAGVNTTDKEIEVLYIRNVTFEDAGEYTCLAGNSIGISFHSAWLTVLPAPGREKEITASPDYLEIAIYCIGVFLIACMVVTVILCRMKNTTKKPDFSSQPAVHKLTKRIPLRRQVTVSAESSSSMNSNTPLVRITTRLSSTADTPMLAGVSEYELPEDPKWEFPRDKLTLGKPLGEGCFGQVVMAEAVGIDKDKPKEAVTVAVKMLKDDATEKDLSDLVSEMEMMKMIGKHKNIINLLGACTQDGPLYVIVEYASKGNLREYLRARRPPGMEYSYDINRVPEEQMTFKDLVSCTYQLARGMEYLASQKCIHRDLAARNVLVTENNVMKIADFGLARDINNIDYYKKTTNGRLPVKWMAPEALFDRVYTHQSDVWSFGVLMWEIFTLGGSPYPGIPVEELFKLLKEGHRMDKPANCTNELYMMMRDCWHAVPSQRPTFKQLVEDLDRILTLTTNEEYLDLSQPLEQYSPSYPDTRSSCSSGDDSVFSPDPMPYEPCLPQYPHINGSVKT
Sequence of human recombinant FGFR1 (P11362 22-822): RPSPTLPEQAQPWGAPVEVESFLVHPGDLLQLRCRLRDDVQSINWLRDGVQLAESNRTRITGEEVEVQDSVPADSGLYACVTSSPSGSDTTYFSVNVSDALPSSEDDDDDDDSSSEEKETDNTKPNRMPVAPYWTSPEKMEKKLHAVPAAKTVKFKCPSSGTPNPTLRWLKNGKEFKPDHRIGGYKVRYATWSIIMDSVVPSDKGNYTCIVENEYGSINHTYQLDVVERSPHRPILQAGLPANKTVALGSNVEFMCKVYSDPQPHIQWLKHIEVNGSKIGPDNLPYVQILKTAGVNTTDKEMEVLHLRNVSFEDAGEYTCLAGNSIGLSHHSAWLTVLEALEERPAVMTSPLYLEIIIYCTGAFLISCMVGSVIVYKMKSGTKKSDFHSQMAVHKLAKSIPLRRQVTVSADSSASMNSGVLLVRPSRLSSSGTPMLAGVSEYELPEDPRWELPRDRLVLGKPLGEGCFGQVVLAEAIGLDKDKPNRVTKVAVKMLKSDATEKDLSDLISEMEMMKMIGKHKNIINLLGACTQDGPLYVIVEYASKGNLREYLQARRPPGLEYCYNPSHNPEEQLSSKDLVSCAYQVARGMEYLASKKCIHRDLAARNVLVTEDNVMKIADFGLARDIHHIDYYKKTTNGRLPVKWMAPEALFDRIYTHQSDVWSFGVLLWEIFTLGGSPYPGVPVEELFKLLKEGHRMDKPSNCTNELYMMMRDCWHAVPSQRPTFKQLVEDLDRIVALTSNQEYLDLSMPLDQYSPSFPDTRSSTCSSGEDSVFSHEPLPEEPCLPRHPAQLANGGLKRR
Sequence of human recombinant FGFR4 (P22455 22-802): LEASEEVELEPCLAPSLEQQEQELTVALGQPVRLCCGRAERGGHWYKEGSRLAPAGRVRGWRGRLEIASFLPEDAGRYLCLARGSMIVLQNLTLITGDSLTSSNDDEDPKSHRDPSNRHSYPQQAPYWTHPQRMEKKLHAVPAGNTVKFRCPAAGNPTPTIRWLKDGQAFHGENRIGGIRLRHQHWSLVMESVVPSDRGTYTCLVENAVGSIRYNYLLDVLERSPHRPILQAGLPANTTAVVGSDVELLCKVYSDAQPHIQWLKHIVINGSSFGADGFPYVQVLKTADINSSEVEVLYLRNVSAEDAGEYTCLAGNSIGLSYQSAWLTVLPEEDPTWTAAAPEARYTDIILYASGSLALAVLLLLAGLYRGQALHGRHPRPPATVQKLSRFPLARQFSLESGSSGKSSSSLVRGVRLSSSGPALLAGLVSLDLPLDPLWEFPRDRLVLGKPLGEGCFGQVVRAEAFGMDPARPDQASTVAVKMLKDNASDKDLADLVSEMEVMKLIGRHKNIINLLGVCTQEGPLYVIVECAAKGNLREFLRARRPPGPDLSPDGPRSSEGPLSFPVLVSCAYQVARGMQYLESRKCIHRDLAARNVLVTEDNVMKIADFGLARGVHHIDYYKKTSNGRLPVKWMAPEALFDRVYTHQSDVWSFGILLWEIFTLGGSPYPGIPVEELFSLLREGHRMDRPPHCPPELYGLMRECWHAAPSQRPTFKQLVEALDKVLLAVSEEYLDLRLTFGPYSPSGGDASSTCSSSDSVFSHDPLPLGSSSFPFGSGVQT
Sequence of human recombinant FGFR3 (P22607 23-806): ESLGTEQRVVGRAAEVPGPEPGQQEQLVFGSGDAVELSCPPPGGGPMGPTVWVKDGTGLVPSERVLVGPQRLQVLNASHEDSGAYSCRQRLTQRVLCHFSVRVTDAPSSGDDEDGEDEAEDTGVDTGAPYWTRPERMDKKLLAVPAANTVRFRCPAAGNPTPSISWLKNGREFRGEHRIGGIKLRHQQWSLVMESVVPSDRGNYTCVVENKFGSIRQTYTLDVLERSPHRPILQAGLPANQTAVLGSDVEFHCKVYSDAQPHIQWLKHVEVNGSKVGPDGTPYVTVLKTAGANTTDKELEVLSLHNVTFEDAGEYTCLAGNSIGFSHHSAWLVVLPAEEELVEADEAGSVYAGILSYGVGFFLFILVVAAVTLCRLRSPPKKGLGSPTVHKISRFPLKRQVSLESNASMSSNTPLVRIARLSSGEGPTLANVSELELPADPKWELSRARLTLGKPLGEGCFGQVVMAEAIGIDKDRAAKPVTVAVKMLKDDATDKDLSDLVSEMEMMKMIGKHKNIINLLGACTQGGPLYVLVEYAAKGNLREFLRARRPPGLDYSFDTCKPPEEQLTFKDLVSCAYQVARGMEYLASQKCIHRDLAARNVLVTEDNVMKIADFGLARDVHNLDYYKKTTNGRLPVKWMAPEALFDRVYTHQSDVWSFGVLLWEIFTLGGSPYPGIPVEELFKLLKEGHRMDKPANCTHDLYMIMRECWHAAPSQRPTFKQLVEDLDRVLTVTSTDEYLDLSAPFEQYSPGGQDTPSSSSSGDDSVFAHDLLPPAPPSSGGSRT

Row | Compound | IC50 [1] [nM] | IC50 [2] [nM] | IC50 [3] [nM] | IC50 [4] [nM] | IC50 [5] [nM]
1 | C=CC(=O)N1CCCC(CCn2c(=O)c(-c3ccccc3Cl)cc3cnc(NCCCCN(CC)CC)nc32)C1 (stereo not drawn) [Example 2, 8-(2-(1-acryloylpiperidin-3-yl)ethyl)-6-(2-chlorophenyl)-2-(4-(diethylamino)-butylamino)pyrido[2,3-d]pyrimidin-7(8H)-one] | 840 | 701 | 1040 | > 5000 | 
2 | C=CC(=O)Nc1cccc(CCn2c(=O)c(-c3cc(OC)cc(OC)c3)cc3cnc(NC)nc32)c1 [Example 8, N-(3-(2-(6-(3,5-dimethoxyphenyl)-2-(methylamino)-7-oxopyrido[2,3-d]pyrimidin-8(7H)-yl)ethyl)phenyl)acrylamide] | 31.2 |  | 19 |  | 83
3 | C=CC(=O)Nc1ccc(CCn2c(=O)c(-c3cc(OC)cc(OC)c3Cl)cc3cnc(NC)nc32)cc1 [Example 13, N-(4-(2-(6-(2-chloro-3,5-dimethoxyphenyl)-2-(methylamino)-7-oxopyrido[2,3-d]pyrimidin-8(7H)-yl)ethyl)phenyl)acrylamide] |  | 1.4 | 2.3 | 25.6 | 
4 | C=CC(=O)Nc1ccc(CCn2c(=O)c(-c3cc(OC)cc(OC)c3Cl)cc3cnc(NC)nc32)cn1 [Example 16, N-(5-(2-(6-(2-chloro-3,5-dimethoxyphenyl)-2-(methylamino)-7-oxopyrido[2,3-d]pyrimidin-8(7H)-yl)ethyl)pyridin-2-yl)acrylamide] |  | 1.7 | 2.3 | 6.9 | 
5 | C=CC(=O)Nc1ccc(CCn2c(=O)c(-c3cc(OC)cc(OC)c3Cl)cc3cnc(NCCN4CCN(C(C)=O)CC4)nc32)cc1 [Example 66, N-(4-(2-(2-((2-(4-acetylpiperazin-1-yl)ethyl)amino)-6-(2-chloro-3,5-dimethoxy-phenyl)-7-oxopyrido[2,3-d]pyrimidin-8(7H)-yl)ethyl)phenyl)acrylamide] |  | 2 | 6.3 | 41 | 
6 | C=CC(=O)Nc1ccc(CCn2c(=O)c(-c3cc(OC)cc(OC)c3Cl)cc3cnc(NCCO)nc32)cc1 [Example 69, N-(4-(2-(6-(2-chloro-3,5-dimethoxyphenyl)-2-((2-hydroxyethyl)amino)-7-oxopyrido[2,3-d]pyrimidin-8(7H)-yl)ethyl)phenyl)acrylamide] |  | 2 | 6 | 42.4 | 
7 | C=CC(=O)Nc1ccc(CCn2c(=O)c(-c3cc(OC)cc(OC)c3Cl)cc3cnc(NC(CO)CO)nc32)cc1 [Example 72, N-(4-(2-(6-(2-chloro-3,5-dimethoxyphenyl)-2-((1,3-dihydroxypropan-2-yl)amino)-7-oxopyrido[2,3-d]pyrimidin-8(7H)-yl)ethyl)phenyl)acrylamide] |  | 1.5 | 6.8 | 43.3 | 
8 | C=CC(=O)Nc1ccc(CCn2c(=O)c(-c3c(Cl)c(OC)cc(OC)c3Cl)cc3cnc(NCC(O)CO)nc32)nc1 (stereo not drawn) [Example 88, N-(6-(2-(6-(2,6-dichloro-3,5-dimethoxyphenyl)-2-((2,3-dihydroxypropyl)amino)-7-oxopyrido[2,3-d]pyrimidin-8(7H)-yl)ethyl)pyridin-3-yl)acrylamide] | 0.6 |  |  |  | 24.6
9 | C=CC(=O)Nc1ccc(CCn2c(=O)c(-c3c(Cl)c(OC)cc(OC)c3Cl)cc3cnc(NC4CCOCC4)nc32)cc1 [Example 89, N-(4-(2-(6-(2,6-dichloro-3,5-dimethoxyphenyl)-7-oxo-2-((tetrahydro-2H-pyran-4-yl)amino)pyrido[2,3-d]pyrimidin-8(7H)-yl)ethyl)phenyl)acrylamide] | 0.2 |  |  |  | 4.8
10 | C=CC(=O)Nc1ccc(CCn2c(=O)c(-c3c(Cl)c(OC)cc(OC)c3Cl)cc3cnc(NCC4CC4)nc32)cc1 [Example 90, N-(4-(2-(2-((cyclopropylmethyl)amino)-6-(2,6-dichloro-3,5-dimethoxyphenyl)-7-oxopyrido[2,3-d]pyrimidin-8(7H)-yl)ethyl)phenyl)acrylamide] | 1.8 |  |  |  | 4.6
11 | C=CC(=O)Nc1ccc(CCn2c(=O)c(-c3c(Cl)c(OC)cc(OC)c3Cl)cc3cnc(NC(C)(CO)CO)nc32)cc1 [Example 91, N-(4-(2-(6-(2,6-dichloro-3,5-dimethoxyphenyl)-2-((1,3-dihydroxy-2-methylpropan-2-yl)amino)-7-oxopyrido[2,3-d]pyrimidin-8(7H)-yl)ethyl)phenyl)acrylamide] | 0.6 |  |  |  | 2.9
12 | C=CC(=O)Nc1ccc(CCn2c(=O)c(-c3c(Cl)c(OC)cc(OC)c3Cl)cc3cnc(NC(CC)(CO)CO)nc32)cc1 [Example 92, N-(4-(2-(6-(2,6-dichloro-3,5-dimethoxyphenyl)-2-((1-hydroxy-2-(hydroxymethyl)-butan-2-yl)amino)-7-oxopyrido[2,3-d]pyrimidin-8(7H)-yl)ethyl)phenyl)acrylamide] | 1.1 |  |  |  | 6.3
13 | C=CC(=O)Nc1ccc(CCn2c(=O)c(-c3c(Cl)c(OC)cc(OC)c3Cl)cc3cnc(NCC(C)(C)CO)nc32)cc1 [Example 93, N-(4-(2-(6-(2,6-dichloro-3,5-dimethoxyphenyl)-2-((3-hydroxy-2,2-dimethylpropyl)-amino)-7-oxopyrido[2,3-d]pyrimidin-8(7H)-yl)ethyl)phenyl)acrylamide] | 0.7 |  |  |  | 1.5
14 | C=CC(=O)Nc1ccc(CCn2c(=O)c(-c3c(Cl)c(OC)cc(OC)c3Cl)cc3cnc(NC(C)(C)CO)nc32)nc1 [Example 94, N-(6-(2-(6-(2,6-dichloro-3,5-dimethoxyphenyl)-2-((1-hydroxy-2-methylpropan-2-yl)amino)-7-oxopyrido[2,3-d]pyrimidin-8(7H)-yl)ethyl)pyridin-3-yl)acrylamide] | 2.1 |  |  |  | 7.4
15 | C=CC(=O)Nc1ccc(CCn2c(=O)c(-c3c(Cl)c(OC)cc(OC)c3Cl)cc3cnc(NCC(C)(C)CO)nc32)nc1 [Example 97, N-(6-(2-(6-(2,6-dichloro-3,5-dimethoxyphenyl)-2-((3-hydroxy-2,2-dimethylpropyl)-amino)-7-oxopyrido[2,3-d]pyrimidin-8(7H)-yl)ethyl)pyridin-3-yl)acrylamide] | 1.5 |  |  |  | 6.4
16 | C=CC(=O)Nc1ccc(CCn2c(=O)c(-c3c(Cl)c(OC)cc(OC)c3Cl)cc3cnc(NCC4(O)CCN(C)CC4)nc32)cc1 [Example 98, N-(4-(2-(6-(2,6-dichloro-3,5-dimethoxyphenyl)-2-(((4-hydroxy-1-methylpiperidin-4-yl)methyl)-amino)-7-oxopyrido[2,3-d]pyrimidin-8(7H)-yl)ethyl)phenyl)acrylamide] | 0.3 |  |  |  | 16.4
17 | C=CC(=O)Nc1ccc(CCn2c(=O)c(-c3c(Cl)c(OC)cc(OC)c3Cl)cc3cnc(NC(C)(CO)CO)nc32)nc1 [Example 99, N-(6-(2-(6-(2,6-dichloro-3,5-dimethoxyphenyl)-2-((1,3-dihydroxy-2-methylpropan-2-yl)-amino)-7-oxopyrido[2,3-d]pyrimidin-8(7H)-yl)ethyl)pyridin-3-yl)acrylamide] | 1.2 |  |  |  | 2.6
18 | C#CCNc1ncc2cc(-c3c(Cl)c(OC)cc(OC)c3Cl)c(=O)n(CCc3ccc(NC(=O)C=C)cn3)c2n1 [Example 101, N-(6-(2-(6-(2,6-dichloro-3,5-dimethoxyphenyl)-7-oxo-2-(prop-2-yn-1-ylamino)-pyrido[2,3-d]pyrimidin-8(7H)-yl)ethyl)pyridin-3-yl)acrylamide] | 0.3 |  |  |  | 1.6
19 | C=CC(=O)Nc1cccc(Cn2c(=O)c(-c3cc(OC)cc(OC)c3Cl)cc3cnc(NCCN4CCOCC4)nc32)c1 [Example 102, N-(3-((6-(2-chloro-3,5-dimethoxyphenyl)-2-((2-morpholinoethyl)amino)-7-oxopyrido[2,3-d]pyrimidin-8(7H)-yl)methyl)phenyl)acrylamide] | 1 |  |  |  | 3.9
20 | C=CC(=O)Nc1ccc(CCn2c(=O)c(-c3cc(OC)cc(OC)c3Cl)cc3cnc(NCC4CC4)nc32)nc1 [Example 103, N-(6-(2-(6-(2-chloro-3,5-dimethoxyphenyl)-2-((cyclopropylmethyl)amino)-7-oxopyrido[2,3-d]pyrimidin-8(7H)-yl)ethyl)pyridin-3-yl)acrylamide] | 0.6 |  |  |  | 3.6
21 | C=CC(=O)Nc1ccc(CCn2c(=O)c(-c3cc(OC)cc(OC)c3Cl)cc3cnc(NCCO)nc32)nc1 [Example 104, N-(6-(2-(6-(2-chloro-3,5-dimethoxyphenyl)-2-((2-hydroxyethyl)amino)-7-oxopyrido[2,3-d]pyrimidin-8(7H)-yl)ethyl)pyridin-3-yl)acrylamide] | 0.8 |  |  |  | 13.4
22 | C=CC(=O)Nc1ccc(CCn2c(=O)c(-c3c(Cl)c(OC)cc(OC)c3Cl)cc3cnc(NN4CCN(C)CC4)nc32)cc1 [Example 105, N-(4-(2-(6-(2,6-dichloro-3,5-dimethoxyphenyl)-2-((4-methylpiperazin-1-yl)amino)-7-oxopyrido[2,3-d]pyrimidin-8(7H)-yl)ethyl)phenyl)acrylamide] | 1.2 |  |  |  | 7.8
23 | C=CC(=O)Nc1ccc(CCn2c(=O)c(-c3cc(OC)cc(OC)c3Cl)cc3cnc(NCC(C)(C)O)nc32)nc1 [Example 109, N-(6-(2-(6-(2-chloro-3,5-dimethoxyphenyl)-2-((2-hydroxy-2-methylpropyl)amino)-7-oxopyrido[2,3-d]pyrimidin-8(7H)-yl)ethyl)pyridin-3-yl)acrylamide] | 1.6 |  |  |  | 3.5
